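Each compound was tested at five concentrations against cells in 96-well plates for 48 hours. TGI is the concentration that stops growth completely.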
Key:
Test in all cases: growth of human tumour cells (NCI), 48 h
[1] = system: NCI-H226 lung
[2] = system: MDA-N
[3] = system: OVCAR-3 ovarian
[4] = system: UACC-62 melanoma
[5] = system: OVCAR-8 ovarian
[6] = system: ACHN renal
[7] = system: SN12C renal
[8] = system: HCC-2998 colon
[9] = system: BT-549 breast
[10] = system: SNB-75 CNS
[11] = system: HCT-15 colon
[12] = system: MOLT-4 leukemia

| SMILES | TGI [1] | TGI [2] | TGI [3] | TGI [4] | TGI [5] | TGI [6] | TGI [7] | TGI [8] | TGI [9] | TGI [10] | TGI [11] | TGI [12] |
| --- | --- | --- | --- | --- | --- | --- | --- | --- | --- | --- | --- | --- |
| Cc1cccc(CC(Cc2c(C)cccc2C(=O)O)C(=O)O)c1 (stereo not drawn) | > 100 µM | > 100 µM | > 100 µM | 10.6 µM | > 100 µM | > 100 µM | > 100 µM | > 100 µM | > 100 µM | > 100 µM | > 100 µM | > 100 µM |
| CC1(C)CC(=O)C2=C(C1)NC1=C(C(=O)CC(C)(C)C1)C2c1ccc([N+](=O)[O-])cc1 | > 100 µM | > 100 µM | > 100 µM | > 100 µM | > 100 µM | > 100 µM | > 100 µM | > 100 µM | > 100 µM | 69.6 µM | > 100 µM | > 100 µM |
| Cc1ccc(N=N/C(=N/NC(=O)c2cc(Cl)ccc2C(=O)c2ccccc2)c2ccc(N(CCC#N)CCC#N)cc2C)cc1 | 38 µM | > 100 µM | 16.4 µM | 36.2 µM | 29.9 µM | > 100 µM | 87.7 µM | 43.9 µM | > 100 µM | > 100 µM | 57.8 µM | 26.2 µM |
| CCOC(=O)c1sc(N/N=C2\NC(=O)/C(=C/c3ccc([N+](=O)[O-])cc3)S2)nc1C | 55.1 µM | 56.2 µM | 49.9 µM | 73.4 µM | 65.2 µM | 58.3 µM | 88.2 µM | 85.3 µM | 74.5 µM | 74.6 µM | 48.5 µM | 31.1 µM |
